From patent publication US20150038435A1, “N-TERMINALLY MODIFIED OLIGOPEPTIDES AND USES THEREOF” (Novo Nordisk A/S, priority 2012, published 2015)
Non-standard residues stand in square brackets, D forms with d. Residues, ends and D or L forms follow the SMILES beside them. *: point of attachment. Lauroyl = CCCCCCCCCCCC(=O)*

Legend:
[1] = Stability of N-terminally acylated peptides or oligopeptides in GI juice; type: in vitro ADME; settings: degradation of the compound itself in jejunum extract from rat, read-out: t 1/2 in rat GI juice
Procedure: 96 well plates were coated by incubating with 0.4% Bovine serum albumin (BSA) solution for minimum of 60 min. To each well, 210 μl of buffer (Hank's balanced salt solution-4-(2-hydroxyethyl)-1-piperazineethanesulfonic acid (HBSS-HEPES) buffer) with 0.005% Tween 20 and 0.001% BSA, pH 6.5 precipitated with 3 vol. cold 96% ethanol (EtOH) w. 1% TFA), 30 μl of a substrate (100 μM insulin analogue or GLP-1 analogue in buffer) and 30 μl of N-terminally acylated peptide or oligopeptide of the invention (10 mM) were added. The plates were pre-incubated (before adding GI juice) for 60 min at 37° C. After addition of 30 μl of GI juice (10-times diluted in buffer), the plates were incubated for 60 min/37° C. on shaker. Samples (40 μl) were taken at 0, 5, 10, 20, 30 and 60 min, stopped with 3 vol. cold 96% EtOH w. 1% TFA and spun down in plates (4500 rpm for 10 min). Samples were diluted 5 times with the buffer prior to LC-MS analysis. Standard samples (0.1, 0.5, 1.0, 5.0, 10.0 μM) were prepared and treated as the samples. Standard curve was analysed both at the beginning and the end of the sequence. Two replicates of each tested conditions were included. Ion suppression was assessed by analyzing a standard at 1 μM and at 10 μM with 1 mM inhibitor present. Intact insulin or GLP-1 analoues were determined at each sample. The results were plotted against the incubation time. Half-lives of the insulin or GLP-1 analogues were determined by nonlinear regression of the results using, for example Graph Pad Prism. The half-lives were expressed relative to the half-live of the insulin or GLP-1 analogue without inhibitor present by dividing the half-lives obtained in the presence of inhibitor with those obtained in the absence of inhibitors. GI juice was prepared from male Sprague Dawley rats (200-250 g) by excising approximately 20 cm piece of mid jejunum and rinsing the inside with 2.5 ml 0.9% sodium chloride solution. The sodium chloride solution was collected in a centrifuge tube, pooled from all rats (20) and centrifuged at 4500 rpm./10 min/4° C. The supernatant was aliquoted in tubes and stored at −80° C.
Degradation of the N-terminally fatty acid modified peptide or oligopeptide of the invention themselves in jejunum extract from rat (GI juice) and determination of half-lives, was measured as described above (example 200).

Chymotrypsin = test: Inhibition of enzymatic degradation of a model GLP-1 (FRET substrate) by chymotrypsin; type: biochemical; settings: for Slope of the initial increase in fluorescence obtained during incubation with 0.001 mg/ml Chymotrypsin: compound 1 mM; for EC50: read-out: EC50 Chymotrypsin (0.001 mg/ml), 0.001 mg/ml chymotrypsin, 37° C., ± standard error if at least 3 measurements
Procedure, shortened: (§1)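 MCA/DNP-labelled model GLP-1 FRET substrate (10 μl of 100 μM stock) in Dulbecco's PBS at 37° C with varying acylated peptide; fluorescence (ex 320/em 405 nm) read every minute for ≥30 min. Initial slopes from linear regression, duplicates averaged; EC50 by sigmoidal logistic fit of slope vs concentration.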

Trypsin = test: Inhibition of enzymatic degradation of a model GLP-1 (FRET substrate) by trypsin; type: biochemical; settings: for Slope of the initial increase in fluorescence obtained during incubation with 0.001 mg/ml Trypsin: compound 1 mM; for EC50: read-out: EC50 Trypsin (0.001 mg/ml), 0.001 mg/ml trypsin, 37° C.
Procedure, shortened: as §1

[2] = Hydrophobicity: retention time during reverse phase HPLC; type: physicochemical; settings: Acquity CSH C18; pH 7.2 buffer/CH3CN gradient; 40° C.
Text: The retention time (RT) during reverse phase HPLC was taken as a measure of hydrophobicity of an N-terminally modified peptide or oligopeptide of the invention, where the connection is: The longer the RT, the more hydrophobic N-terminally modified peptide or oligopeptide. The following running conditions were applied during HPLC analysis:
Buffer B: 70% (v/v) aq. CH3CN

Row | half-life at 1 mM ([1]; male, Sprague Dawley, rat GI juice (jejunum extract), pH 6.5) [min] | EC50 (Chymotrypsin) [µM] | EC50 (Trypsin) [µM] | RT (retention time during reverse phase HPLC as a measure of hydrophobicity) [2] [min] | half-life ([1]; GI juice (jejunum extract)) [min] | SMILES | Slope of the initial increase in fluorescence obtained during incubation with 0.001 mg/ml Chymotrypsin (Chymotrypsin) | Slope of the initial increase in fluorescence obtained during incubation with 0.001 mg/ml Trypsin (Trypsin)
1 | > 1000 | 476 | > 500 | 6.91 | – | CCCCCCCCCCCC(=O)N[C@H](C)C(=O)N[C@H](C)C(=O)N1CCC[C@@H]1C(=O)N[C@H](Cc1ccccc1)C(=O)O [Example 1, N-dodecanoyl-DAla-DAla-DPro-DPhe-OH] (Lauroyl-[dA][dA][dP][dF]-OH) | 0.41 | 0.39
2 | – | 200 ± 26 | 317 | 6.94 | 3.5 | CCCCCCCCCCCC(=O)N[C@@H](C)C(=O)N[C@@H](C)C(=O)N1CCC[C@H]1C(=O)N[C@@H](Cc1ccccc1)C(=O)O [Example 34, N-dodecanoyl-Ala-Ala-Pro-Phe-OH] (Lauroyl-AAPF-OH) | 0.07 | 0.31
